Data taken from ChEMBL document CHEMBL1201862, “PubChem BioAssay data set” (2004).
Values belong to the molecule of their own block, whether it stands above or below them. Calls of active or inactive are those of the source.

Assays:
[1] = target: Photoreceptor-specific nuclear receptor (Homo sapiens, UniProt Q9Y5X4); type: functional, cell-based;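 note: CHO-S cells with Gal4-NCOR and VP16-NR2E3 two-hybrid luciferase reporter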
[2] = target: T1, COUP transcription factor 2 (Homo sapiens, UniProt P24468); assay: Luminescence-based cell-based high throughput dose response assay to identify inhibitors of COUP-TFII (NR2F2).; type: functional;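 note: HEK293 cells transiently cotransfected with COUP-TFII expression vector and reporter; luciferase reporter luminescence driven by COUP-TFII from the pX2-168 reporter plasmid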
T1 sequence (P24468 whole entry): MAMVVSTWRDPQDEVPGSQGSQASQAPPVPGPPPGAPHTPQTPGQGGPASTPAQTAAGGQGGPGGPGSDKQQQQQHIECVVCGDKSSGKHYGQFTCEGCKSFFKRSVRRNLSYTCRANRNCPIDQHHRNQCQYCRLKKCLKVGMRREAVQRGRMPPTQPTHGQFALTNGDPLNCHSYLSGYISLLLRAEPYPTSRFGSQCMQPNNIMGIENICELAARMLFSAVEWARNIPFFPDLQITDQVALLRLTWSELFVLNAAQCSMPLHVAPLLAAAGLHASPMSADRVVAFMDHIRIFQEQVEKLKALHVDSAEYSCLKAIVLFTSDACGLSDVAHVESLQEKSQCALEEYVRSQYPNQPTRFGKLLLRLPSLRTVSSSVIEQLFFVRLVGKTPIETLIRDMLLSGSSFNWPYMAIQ

[3] = target: T2, Small ubiquitin-related modifier 1 (Homo sapiens, UniProt P63165); assay: SUMO1 protein interaction blockers, potency – biochemical, fluorescence polarization, uHTS hits, dose response (AID 624382); type: functional; details: read-out: IC50_Mean
[4] = target: T3, Probable nicotinate-nucleotide adenylyltransferase (Staphylococcus aureus (strain N315), UniProt P65502); type: functional, Staphylococcus aureus subsp. aureus N315;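 for IC50 Mean: confirmatory dose-response retesting of NadD inhibitor hits first found in an ultra-high-throughput screen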
[5] = target: T3, Probable nicotinate-nucleotide adenylyltransferase; type: functional, Staphylococcus aureus subsp. aureus N315; details: read-out: IC50_Mean
[6] = target: T2, Small ubiquitin-related modifier 1; assay: SUMO1 protein-protein binding blockers, potency – biochemical, FRET, dose response (AID 624383); type: functional; details: read-out: IC50_Mean
[7] = viability loss in HeLa cells – cytotoxicity control for MgcRacGAP inhibitor project, dose response (AID 624300); type: functional
[8] = target: T4, Rac GTPase-activating protein 1 (Homo sapiens, UniProt Q9H0H5); assay: blockers of MgcRacGAP-driven Rac1 GTP hydrolysis – biochemical, ADP Hunter fluorescence, primary and confirmatory, confirmation (AID 624330); type: functional
T4 sequence (Q9H0H5 whole entry): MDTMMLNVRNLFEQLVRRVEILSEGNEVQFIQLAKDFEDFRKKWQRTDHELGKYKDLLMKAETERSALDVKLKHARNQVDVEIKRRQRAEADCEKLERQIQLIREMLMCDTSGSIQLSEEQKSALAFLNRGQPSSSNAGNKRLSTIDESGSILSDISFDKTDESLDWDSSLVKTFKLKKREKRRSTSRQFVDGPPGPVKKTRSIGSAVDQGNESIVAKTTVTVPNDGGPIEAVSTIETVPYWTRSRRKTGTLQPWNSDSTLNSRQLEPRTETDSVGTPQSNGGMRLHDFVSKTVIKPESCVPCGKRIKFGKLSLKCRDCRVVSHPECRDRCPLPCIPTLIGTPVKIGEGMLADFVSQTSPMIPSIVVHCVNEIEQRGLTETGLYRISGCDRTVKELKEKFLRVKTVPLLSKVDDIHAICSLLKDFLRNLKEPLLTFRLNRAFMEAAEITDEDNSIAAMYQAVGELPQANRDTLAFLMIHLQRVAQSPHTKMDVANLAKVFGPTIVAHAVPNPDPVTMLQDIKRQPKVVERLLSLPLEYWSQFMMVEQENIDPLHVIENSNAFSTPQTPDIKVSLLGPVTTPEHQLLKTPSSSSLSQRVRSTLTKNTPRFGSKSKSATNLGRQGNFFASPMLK

[9] = target: T5, Aryl hydrocarbon receptor (Homo sapiens, UniProt P35869); details: Potency;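 note: confirmatory quantitative high-throughput screen measuring activation of the AhR signaling pathway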
T5 sequence (P35869 whole entry): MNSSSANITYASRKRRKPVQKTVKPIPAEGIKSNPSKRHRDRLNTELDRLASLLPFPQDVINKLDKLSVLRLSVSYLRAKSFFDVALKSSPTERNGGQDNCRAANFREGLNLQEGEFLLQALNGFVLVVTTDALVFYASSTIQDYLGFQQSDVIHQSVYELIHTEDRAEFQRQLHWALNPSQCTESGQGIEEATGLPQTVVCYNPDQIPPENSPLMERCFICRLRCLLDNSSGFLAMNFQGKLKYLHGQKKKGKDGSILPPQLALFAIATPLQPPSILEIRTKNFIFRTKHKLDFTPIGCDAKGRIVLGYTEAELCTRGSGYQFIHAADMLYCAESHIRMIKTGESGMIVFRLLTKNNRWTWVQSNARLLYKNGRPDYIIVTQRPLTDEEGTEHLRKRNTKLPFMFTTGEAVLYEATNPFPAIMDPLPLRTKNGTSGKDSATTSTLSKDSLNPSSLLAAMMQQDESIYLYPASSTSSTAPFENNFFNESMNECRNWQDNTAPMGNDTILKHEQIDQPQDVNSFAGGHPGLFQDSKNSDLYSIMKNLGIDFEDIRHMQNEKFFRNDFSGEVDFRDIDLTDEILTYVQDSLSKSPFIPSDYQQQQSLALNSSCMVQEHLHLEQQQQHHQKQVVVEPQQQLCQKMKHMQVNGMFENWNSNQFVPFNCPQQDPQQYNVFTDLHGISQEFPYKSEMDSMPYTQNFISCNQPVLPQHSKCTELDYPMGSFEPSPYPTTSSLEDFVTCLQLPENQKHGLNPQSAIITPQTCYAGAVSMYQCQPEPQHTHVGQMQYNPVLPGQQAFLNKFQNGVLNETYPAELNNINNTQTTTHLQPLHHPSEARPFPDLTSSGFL

[10] = Fluorescence-based cell-based high throughput dose response assay for inhibitors of the interaction of nucleotide-binding oligomerization domain containing 2 (NOD2) and the receptor-interacting serine-threonine kinase 2 (RIPK2).; type: functional; details: Homo sapiens
Beta Lactamase = Beta Lactamase (Pseudomonas aeruginosa, UniProt Q932Y6); assay: BLA reporter interference, concentration series – BLA reporter cells, FRET fluorescence, artefact control for NOD2-RIPK2 interaction inhibitor project, dose response (AID 651552); type: functional, cell-based
Chain of Beta Lactamase (Q932Y6 whole entry): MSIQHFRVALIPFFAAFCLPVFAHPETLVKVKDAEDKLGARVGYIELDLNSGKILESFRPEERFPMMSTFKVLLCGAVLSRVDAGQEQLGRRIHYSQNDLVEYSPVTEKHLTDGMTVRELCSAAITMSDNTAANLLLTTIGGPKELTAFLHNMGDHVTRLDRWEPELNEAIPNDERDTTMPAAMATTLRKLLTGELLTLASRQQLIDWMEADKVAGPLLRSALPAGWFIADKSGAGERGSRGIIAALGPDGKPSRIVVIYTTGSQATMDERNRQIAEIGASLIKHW

T2 sequence (P63165 whole entry): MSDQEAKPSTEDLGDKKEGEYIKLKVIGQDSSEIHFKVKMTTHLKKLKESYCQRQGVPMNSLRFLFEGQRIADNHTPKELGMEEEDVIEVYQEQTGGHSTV
Chain of Photoreceptor-specific nuclear receptor (Q9Y5X4 whole entry, the tested form may be a part): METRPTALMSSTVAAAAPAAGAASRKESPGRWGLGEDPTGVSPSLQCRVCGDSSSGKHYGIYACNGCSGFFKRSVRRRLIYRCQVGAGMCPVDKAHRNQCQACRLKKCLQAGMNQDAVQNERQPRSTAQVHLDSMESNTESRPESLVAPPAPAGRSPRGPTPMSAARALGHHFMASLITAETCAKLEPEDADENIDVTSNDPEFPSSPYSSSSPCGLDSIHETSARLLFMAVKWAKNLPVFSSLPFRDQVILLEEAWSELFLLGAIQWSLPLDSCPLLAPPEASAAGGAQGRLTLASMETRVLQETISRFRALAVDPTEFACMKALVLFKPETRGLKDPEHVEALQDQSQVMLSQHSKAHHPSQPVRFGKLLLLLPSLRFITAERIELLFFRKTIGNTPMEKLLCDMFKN

IC50 [1]: 5.57 µM (active) | IC50 [2]: 14 µM (inactive)
SMILES: c1ccc(C(Cc2nc(-c3ccncc3)no2)c2ccccc2)cc1

SMILES: Cc1cc(NCCCCCCCNc2cc(C)nc3cc([N+](=O)[O-])ccc23)c2ccc([N+](=O)[O-])cc2n1
IC50 [3]: > 66.6 µM (inactive) | IC50 [4]: 15.2 µM (active) | IC50 [5]: 23.2 µM (active) | IC50 [6]: 2.12 µM (active) | CC50 [7]: 37.8 µM (active) | IC50 [8]: 26.1 µM (active)

SMILES: Nc1c(Cl)c(Cl)c(Cl)c(Cl)c1Cl
AC50 [9]: 44.7 µM (inconclusive)

SMILES: CCOC(=O)[C@]12Cc3cc(Cl)ccc3[C@H]1N(C(C)C)C(=O)c1ccccc12
IC50 [10]: 2.21 µM (active) | IC50 (Beta Lactamase): 45.2 µM (inactive)

SMILES: O=[N+]([O-])c1cc(C(F)(F)F)c(Cl)c([N+](=O)[O-])c1Nc1ncc(C(F)(F)F)cc1Cl [FLUAZINAM]
AC50 [9]: 31.6 µM (inconclusive)
